Earlier results as cited in patent publication US10730858B2, “Lactam, cyclic urea and carbamate, and triazolone derivatives as potent and selective rock inhibitors” (BRISTOL-MYERS SQUIBB COMPANY, priority 2016, dated 2020).
Where two headings read alike, the source gives them in different places.

Experiments:
[1] = system: rat models of hypertension; conditions: cited from earlier work
neointimal formation = conditions: rats; cited from earlier work
[2] = system: congestive heart failure in Dahl salt-sensitive rats; conditions: rat, in vivo; cited from earlier work

SMILES: C[C@@H](N)[C@H]1CC[C@H](C(=O)Nc2ccncc2)CC1 [Example Y-27632, Y-27632]
- blood pressure ([1]; control rats): only a minor effect
- blood pressure ([1]; spontaneously hypertensive rat, renal hypertensive rat and deoxycortisone acetate salt hypertensive rat models): significantly decrease blood pressure
- neointimal formation (neointimal formation): inhibited neointimal formation
- ventricular hypertrophy, fibrosis and function [2]: improve ventricular hypertrophy, fibrosis and function
